Marks after values point to notes of the source that are not given here.
Experiments:
Assay type in all cases: in vivo
Kunming mice [1] = test: Influence on hypnosis effect with pentobarbital sodium doses below the threshold (25 mg/kg i.p.); settings: pentobarbital sodium 25 mg/kg i.p. 60 min later, sleep observed in 30 min, n = 10
Description: (§1) 1.1 Animals for experiments: Kunming mice, weighting 18.9˜22.2 g for females, and 20.2˜23.0 g for males, licensed under SCXK-(Ji) 2007-0003, and provided by The experimental animal centre, Jilin University.
(§2) 1.2 Chemicals for experiments: The flavone derivatives provided in Examples 1-41 and the flavanone derivatives provided in Examples 42-71 are all formulated with 0.5% sodium carboxymethyl cellulose as solutions with required concentrations.
(§3) 1.3 Grouping of animals: 6420 animals are employed in the entire experiments and 2140 of the animals are randomly divided into 214 groups by gender, and the […] include: control group, low dosage group for each experimental drugs (25 mg/kg), medium dosage group for each experimental drugs (50 mg/kg), and high dosage group for each experimental drugs (100 mg/kg). Each group has 10 animals and either female or male constitutes half of the group. The groups are used in behavior observation and voluntary action observation. The other 4280 animals are randomly divided into 214 groups by gender respectively (the grouping way is the same with that described above). Each group has 20 animals and either female or male constitutes half of the group. In each group, 10 animals are used in hypnosis experimentations with pentobarbital sodium doses below the threshold, and the other 10 animals are used hypnosis experimentations with pentobarbital sodium doses at the threshold.
1.5.3 Influence on Hypnosis Effect with Mice Pentobarbital Sodium Doses Below the Threshold
(§4) The drug is intragastric administered in mice for single time, 2 animals of each group are given drug per round with the dosing interval of 40 min (±5 min). According to the administration round, in 60 min (±5 min) of each round after the drug administration, the animals were intraperitoneally injected 0.3% sodium pentobarbital 25 mg/kg, respectively. Sleep condition of the animals were observed within 30 min (under sleep determination standard of loss of righting reflex more than 1 min). After animals undergo loss of righting reflex, number of the animals is recorded, to calculate sleep percentage.
(§5) Number of autonomic activities is detected by leneve Test for homogeneity of variance. If the homogeneity of variance is good (P>0.05), statistical analysis is performed with ANOVA. If ANOVA have statistical significance (P≦0.05), Dunnett's test for multiple comparisons analysis is performed. Number of animals of sleeping mice is applied of ANOVA. Incidence rate of animal asleep is applied of χ2 test. Sleep latency and sleep duration are recorded in min, averaged by group, represented by standard deviation, and undergo statistical analysis using ANOVA.

Kunming mice [2] = test: Influence on autonomic activity of normal mice (ZIL-2 mice autonomic activity meter, counts within 10 min); settings: intragastric, x ± s; for Times of activities in 1 h after drug administration/10 min: 1 h after administration; for Times of activities in 2 h after drug administration/10 min: 2 h after administration; for Times of activities in 24 h after drug administration/10 min: 24 h after administration
Description: as §1, §2, §3
1.4 Experimental instrument and agents: ZIL-2 mice autonomic activity meter, production of Institute of Materia Medica of Chinese Academy of Medical Sciences; pentobarbital sodium, Lot: 100808, 25 g/bottle, Beijing Chemical Reagent Company equipment imported from Germany.
1.5.2 Influence on Autonomic Activity of Normal Mice
After observing the general behavior, in 1 h, 2 h and 24 h after drug administration, respectively, ZIL-2 mice autonomic activity meter is put respectively. Number of autonomic activities of each group of mice is measured within 10 min. Results among groups are compared.
as §5

Kunming mice [3] = test: Influence on hypnosis effect with pentobarbital sodium doses at the threshold (50 mg/kg i.p.); settings: pentobarbital sodium 50 mg/kg i.p. 60 min later, x ± s, n = 10
Description: as §1, §2, §3
1.5.4 Influence on Hypnosis Effect with Mice Pentobarbital Sodium Doses at the Threshold
as §4, with “50” for “25”, “Time to fall asleep (sleep latency) and sleep duration” for “Sleep condition”, “recorded” for “observed”, “under” for “30 min (under”, “min.” for “min). After animals undergo loss of righting reflex, number of the animals is recorded, to calculate sleep percentage.”
as §5

[4] = test drug 25 mg/kg intragastric single dose
[5] = test drug 50 mg/kg intragastric single dose
[6] = test drug 100 mg/kg intragastric single dose
[7] = 25 mg/kg intragastric single dose
[8] = 50 mg/kg intragastric single dose
[9] = 100 mg/kg intragastric single dose

Row | SMILES | Number of sleeping animals (Kunming mice [1]; [4]) | rate of sleeping (%) (Kunming mice [1]; [4]) | Number of sleeping animals (Kunming mice [1]; [5]) | rate of sleeping (%) (Kunming mice [1]; [5]) | Number of sleeping animals (Kunming mice [1]; [6]) | rate of sleeping (%) (Kunming mice [1]; [6]) | Times of activities in 1 h after drug administration/10 min (Kunming mice [2]; 25 mg/kg, n = 10) | Times of activities in 2 h after drug administration/10 min (Kunming mice [2]; 25 mg/kg, n = 10) | Times of activities in 24 h after drug administration/10 min (Kunming mice [2]; 25 mg/kg, n = 10) | Times of activities in 1 h after drug administration/10 min (Kunming mice [2]; 50 mg/kg, n = 10) | Times of activities in 2 h after drug administration/10 min (Kunming mice [2]; 50 mg/kg, n = 10) | Times of activities in 24 h after drug administration/10 min (Kunming mice [2]; 50 mg/kg, n = 10) | Times of activities in 1 h after drug administration/10 min (Kunming mice [2]; 100 mg/kg, n = 10) | Times of activities in 2 h after drug administration/10 min (Kunming mice [2]; 100 mg/kg, n = 10) | duration of sleep (Kunming mice [3]; [7]) | time to sleep (Kunming mice [3]; [7]) | duration of sleep (Kunming mice [3]; [8]) | time to sleep (Kunming mice [3]; [8]) | duration of sleep (Kunming mice [3]; [9]) | time to sleep (Kunming mice [3]; [9]) | also measured
1 | COc1cc(-c2cc(=O)c3c(OC)c(OC)c(OC)c(OC)c3o2)cc(OC)c1OC [Example 15, 5,6,7,8,3′,4′,5′-heptamethoxyl-flavone] | 3 | 30% | 6 | 60** % | 8 | 80*** % | 287.1 ± 39.1 /10 min | 255.1 ± 42.9 /10 min | 308.5 ± 75.2 /10 min | 254.7 ± 41.2 /10 min | 239.9 ± 42.6 /10 min | 317.4 ± 95.6 /10 min | 179.6 ± 44.3 /10 min | 152.5 ± 36.9 /10 min | 39.93 ± 15.22 min | 4.31 ± 1.65 min | 51.53 ± 21.35 min | 3.53 ± 1.22 min | 58.25 ± 21.48 min | 3.29 ± 1.58 min | Times of activities in 24 h after drug administration/10 min (Kunming mice [2]; 100 mg/kg, n = 10): 287.8 ± 89.1 /10 min
2 | CC=Cc1cc(-c2cc(=O)c3c(CCCCC)cc(C(=O)O)cc3o2)cc(C(=O)O)c1C#N [Example 26] | 4 | 40* % | 5 | 50** % | 7 | 70** % | 310.7 ± 59.5 /10 min | 279.0 ± 32.2 /10 min | 313.5 ± 68.8 /10 min | 284.7 ± 46.1 /10 min | 267.1 ± 43.5 /10 min | 314.1 ± 82.3 /10 min | 263.6 ± 42.4 /10 min | 245.6 ± 40.8 /10 min | 23.01 ± 25.99 min | 5.38 ± 2.22 min | 28.69 ± 26.56 min | 5.12 ± 2.32 min | 65.28 ± 46.29 min | 3.24 ± 1.16 min | Times of activities in 24 h after drug administration/10 min (Kunming mice [2]; 100 mg/kg, n = 10): 322.6 ± 61.2 /10 min
3 | COc1cc(OC)c2c(=O)cc(-c3ccc(OC)c(OC)c3)oc2c1 [Example 7, 5,7,3′,4′-tetramethoxyl-flavone] | 5 | 50** % | 6 | 60** % | 9 | 90*** % | – | – | – | – | – | – | – | – | 61.21 ± 22.82 min | 3.25 ± 1.93 min | 79.27 ± 21.17 min | 3.03 ± 1.41 min | 87.43 ± 21.56 min | 2.32 ± 1.21 min | Times of activities in 1 h after drug administration/10 min (Kunming mice [2]; 25 mg/kg, n = 10, 25 mg/kg): 248.5 ± 55.1 /10 min; Times of activities in 2 h after drug administration/10 min (Kunming mice [2]; 25 mg/kg, n = 10, 25 mg/kg): 234.1 ± 45.8 /10 min; Times of activities in 24 h after drug administration/10 min (Kunming mice [2]; 25 mg/kg, n = 10, 25 mg/kg): 303.4 ± 75.8 /10 min; Times of activities in 1 h after drug administration/10 min (Kunming mice [2]; 50 mg/kg, n = 10, 50 mg/kg): 184.7 ± 52.6 /10 min; Times of activities in 2 h after drug administration/10 min (Kunming mice [2]; 50 mg/kg, n = 10, 50 mg/kg): 164.4 ± 45.8 /10 min; Times of activities in 24 h after drug administration/10 min (Kunming mice [2]; 50 mg/kg, n = 10, 50 mg/kg): 318.5 ± 83.6 /10 min; Times of activities in 1 h after drug administration/10 min (Kunming mice [2]; 100 mg/kg, n = 10, 100 mg/kg): 125.2 ± 44.5 /10 min; Times of activities in 2 h after drug administration/10 min (Kunming mice [2]; 100 mg/kg, n = 10, 100 mg/kg): 122.2 ± 48.6 /10 min; Times of activities in 24 h after drug administration/10 min (Kunming mice [2]; 100 mg/kg, n = 10, 100 mg/kg): 329.8 ± 53.2 /10 min
4 | COc1ccc(C2CC(=O)c3c(OC)c(OC)c(OC)c(OC)c3O2)cc1OC (stereo not drawn) [Example 48, 5,6,7,8,3′,4′-hexamethoxyl-flavanone] | 5 | 50** % | 6 | 60** % | 8 | 80*** % | 225.6 ± 43.2 /10 min | 229.4 ± 53.7 /10 min | 308.5 ± 75.2 /10 min | 145.1 ± 41.6 /10 min | 140.6 ± 40.8 /10 min | 317.4 ± 95.6 /10 min | 120.3 ± 48.3 /10 min | 118.5 ± 42.6 /10 min | 50.55 ± 20.76 min | 3.40 ± 1.25 min | 67.54 ± 21.07 min | 3.19 ± 1.21 min | 87.51 ± 24.93 min | 2.05 ± 1.80 min | Times of activities in 24 h after drug administration/10 min (Kunming mice [2]; 100 mg/kg, n = 10): 302.1 ± 89.0 /10 min
5 | COc1ccc(-c2cc(=O)c3c(OC)c(OC)c(OC)c(OC)c3o2)cc1OC [Example 14, 5,6,7,8,3′,4′-hexamethoxyl-flavone] | 4 | 40* % | 6 | 60** % | 7 | 70** % | 289.9 ± 42.3 /10 min | 281.1 ± 41.6 /10 min | 313.2 ± 74.4 /10 min | 178.6 ± 40.2 /10 min | 183.3 ± 51.3 /10 min | 324.7 ± 79.6 /10 min | 159.1 ± 48.1 /10 min | 133.9 ± 49.7 /10 min | 34.12 ± 28.26 min | 4.78 ± 1.81 min | 57.34 ± 19.33 min | 4.25 ± 1.55 min | 60.26 ± 32.36 min | 3.93 ± 1.57 min | Times of activities in 24 h after drug administration/10 min (Kunming mice [2]; 100 mg/kg, n = 10): 322.6 ± 61.2 /10 min

— patent US9669003B2, “Use of flavone and flavanone derivatives in preparation of sedative and hypnotic drugs” (priority 2012, dated 2017)
